Consider 1 compound from patent publication US9085606B2, “Beta amino acid derivatives as integrin antagonists” (Saint Louis University, priority 2012, dated 2015).

Assay [1] deals with T1, Recombinant human integrin α5β1 (Homo sapiens, UniProt P05556+P08648).
T1 construct: purchased R&D Systems 3230-A5
As to the kind of experiment: Solid Phase Receptor Assay for α5β1 Function. The note with it: binding to fibronectin-coated plate; read-out: α5β1 SPRA IC50. The procedure:
Solid Phase Receptor Assay for α5β1 Function.
Wells were washed 3 times with 150 μL TBS+ and 150 μl of blocking buffer (TBS+ with 1% bovine serum albumin, Sigma A7906) were added. The plate was incubated for 1 hr at 37° C. and then washed 3× with TBS+ buffer. […] Compounds were diluted 1:100 into the integrin solution and then 50 μL added to empty wells of the washed fibronectin-coated plate according to a standard template with each sample repeated in triplicate. After incubation for two hours at room temperature, the plate was washed 3× with 150 μL of TBS+ buffer. To each well, 50 μL of biotinylated anti-α5 antibody (R&D Systems, BAF1864) at 0.5 ug/mL in TBS+/0.1% BSA were added and the plate covered and incubated for 1 hr at room temperature. After washing the plate 3× with 150 μL of TBS+ buffer, 50 μL of streptavidin-conjugated horseradish peroxidase (R&D Systems, DY998) diluted in TBS+ blocking buffer were added to the wells and the plate incubated for 20 min at room temperature. The plate was washed 3× with TBS+ buffer followed by 50 μL of room temperature TMB substrate (Sigma, T444) added to each well and the plate incubated for 20 min at room temperature. The reaction was optionally stopped with 25 μL of Stop Solution (Sigma S5689). Plates were read by colorimetric detection at 650 nm wavelength using a Tecan Safire II plate reader.

The target in assay [2] is T2, Recombinant human integrin αvβ8 (Homo sapiens, UniProt P06756+P26012).
T2 construct: purchased R&D Systems 4135-AV
T2 sequence (P06756 31-992 limits assumed): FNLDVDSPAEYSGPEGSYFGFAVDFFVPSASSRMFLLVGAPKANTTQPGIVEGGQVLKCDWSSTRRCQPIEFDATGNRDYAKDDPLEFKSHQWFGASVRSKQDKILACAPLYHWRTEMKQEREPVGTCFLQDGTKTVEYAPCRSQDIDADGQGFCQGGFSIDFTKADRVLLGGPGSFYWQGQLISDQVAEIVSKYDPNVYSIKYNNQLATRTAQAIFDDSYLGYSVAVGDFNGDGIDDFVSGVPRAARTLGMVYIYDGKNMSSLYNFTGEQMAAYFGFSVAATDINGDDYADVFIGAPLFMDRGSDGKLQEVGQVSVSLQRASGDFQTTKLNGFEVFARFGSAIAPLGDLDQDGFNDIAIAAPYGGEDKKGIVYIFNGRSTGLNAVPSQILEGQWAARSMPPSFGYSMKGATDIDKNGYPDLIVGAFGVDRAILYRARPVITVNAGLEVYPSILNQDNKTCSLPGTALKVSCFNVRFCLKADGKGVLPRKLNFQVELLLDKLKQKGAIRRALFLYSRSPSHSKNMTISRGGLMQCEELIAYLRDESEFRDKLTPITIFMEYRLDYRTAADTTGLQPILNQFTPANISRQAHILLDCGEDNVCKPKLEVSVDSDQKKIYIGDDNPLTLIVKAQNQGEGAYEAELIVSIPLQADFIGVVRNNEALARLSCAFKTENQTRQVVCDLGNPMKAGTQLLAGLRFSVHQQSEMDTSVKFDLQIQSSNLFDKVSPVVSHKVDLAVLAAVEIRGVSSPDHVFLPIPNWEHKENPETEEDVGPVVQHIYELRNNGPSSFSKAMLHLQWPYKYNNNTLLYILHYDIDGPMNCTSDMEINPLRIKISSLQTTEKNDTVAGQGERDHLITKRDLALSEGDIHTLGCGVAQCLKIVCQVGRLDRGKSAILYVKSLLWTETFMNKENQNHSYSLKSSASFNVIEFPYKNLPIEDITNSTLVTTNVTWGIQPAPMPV
T2 sequence (P26012 43-684 limits assumed): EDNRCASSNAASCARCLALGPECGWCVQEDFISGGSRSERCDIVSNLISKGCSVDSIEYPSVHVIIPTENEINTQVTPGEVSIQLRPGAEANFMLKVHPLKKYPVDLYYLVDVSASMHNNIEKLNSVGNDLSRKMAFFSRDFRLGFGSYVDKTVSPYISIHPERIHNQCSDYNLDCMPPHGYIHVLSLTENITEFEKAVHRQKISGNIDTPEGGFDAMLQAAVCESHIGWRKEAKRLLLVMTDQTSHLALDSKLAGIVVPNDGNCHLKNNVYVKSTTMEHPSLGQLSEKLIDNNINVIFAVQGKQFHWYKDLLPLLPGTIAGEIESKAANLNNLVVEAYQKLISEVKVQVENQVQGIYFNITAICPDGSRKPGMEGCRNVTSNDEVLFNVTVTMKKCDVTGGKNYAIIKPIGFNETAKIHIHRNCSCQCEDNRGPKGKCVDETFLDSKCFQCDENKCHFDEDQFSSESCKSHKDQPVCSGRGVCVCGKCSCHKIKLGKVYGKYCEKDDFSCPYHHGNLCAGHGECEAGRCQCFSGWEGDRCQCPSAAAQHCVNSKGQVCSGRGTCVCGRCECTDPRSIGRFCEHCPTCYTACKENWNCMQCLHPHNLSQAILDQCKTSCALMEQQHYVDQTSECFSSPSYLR
In words: Solid Phase Receptor Assay for αvβ8 Function. As to conditions: binding to LAP-coated plate; read-out: αvβ8 SPRA IC50. The procedure:
Solid Phase Receptor Assay for αvβ8 Function.
Wells were washed 3 times with 150 μL TBS+ and 150 μL of blocking buffer (TBS+ with 1% bovine serum albumin, Sigma A7906) were added. The plate was incubated for 1 hr at 37° C. and then washed 3× with TBS+. […] Compounds were diluted 1:100 into the integrin solution and 50 μL added to empty wells of the washed LAP-coated plate according to a standard template with each sample repeated in triplicate. After incubation for two hours at room temperature, the plate was washed 3× with 150 μL of TBS+. To each well, 50 μL of biotinylated anti-αv antibody (R&D Systems, BAF1219) at 1 μg/mL in TBS+/0.1% BSA were added and the plate was covered and incubated for 1 hr at room temperature. After washing the plate 3× with 150 μL of TBS+ buffer, 50 μL of streptavidin-conjugated horseradish peroxidase (R&D Systems, DY998) diluted in TBS+ blocking buffer were added to the wells and the plate incubated for 20 min at room temperature. The plate was washed 3× with TBS+ followed by 50 μL of TMB substrate (Sigma T4444) added to each well and the plate incubated for 20 min at room temperature. The reaction was optionally stopped with 25 μL of Stop Solution (Sigma S5689). Plates were read by colorimetric detection at 650 nm wavelength using a Tecan Safire II plate reader.

T1 sequence (P08648 42-995 limits assumed): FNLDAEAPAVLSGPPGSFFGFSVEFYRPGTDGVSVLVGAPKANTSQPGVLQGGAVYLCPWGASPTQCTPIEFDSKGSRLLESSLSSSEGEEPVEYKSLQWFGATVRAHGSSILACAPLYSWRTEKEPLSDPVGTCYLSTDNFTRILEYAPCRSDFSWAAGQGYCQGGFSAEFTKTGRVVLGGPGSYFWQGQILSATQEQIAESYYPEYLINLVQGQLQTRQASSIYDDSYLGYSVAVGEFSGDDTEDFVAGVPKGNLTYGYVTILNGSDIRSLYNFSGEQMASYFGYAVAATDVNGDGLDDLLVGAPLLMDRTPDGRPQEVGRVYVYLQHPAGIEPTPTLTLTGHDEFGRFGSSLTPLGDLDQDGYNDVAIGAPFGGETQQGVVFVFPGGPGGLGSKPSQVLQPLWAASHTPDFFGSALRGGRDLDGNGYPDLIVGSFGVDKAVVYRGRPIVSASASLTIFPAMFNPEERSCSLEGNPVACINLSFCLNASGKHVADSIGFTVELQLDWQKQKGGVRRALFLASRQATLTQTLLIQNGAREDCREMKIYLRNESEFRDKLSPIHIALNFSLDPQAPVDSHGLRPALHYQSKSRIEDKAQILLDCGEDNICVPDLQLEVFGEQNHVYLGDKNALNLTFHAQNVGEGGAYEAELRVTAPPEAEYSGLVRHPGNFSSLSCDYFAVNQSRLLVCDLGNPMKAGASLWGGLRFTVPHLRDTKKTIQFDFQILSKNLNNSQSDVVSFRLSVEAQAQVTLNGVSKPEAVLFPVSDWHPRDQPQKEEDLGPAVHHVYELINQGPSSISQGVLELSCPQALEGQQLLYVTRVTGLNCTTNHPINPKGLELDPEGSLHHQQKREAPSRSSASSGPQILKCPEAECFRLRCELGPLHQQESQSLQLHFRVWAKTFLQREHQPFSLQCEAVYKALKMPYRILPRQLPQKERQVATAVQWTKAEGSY
T1 sequence (P05556 21-728 limits assumed): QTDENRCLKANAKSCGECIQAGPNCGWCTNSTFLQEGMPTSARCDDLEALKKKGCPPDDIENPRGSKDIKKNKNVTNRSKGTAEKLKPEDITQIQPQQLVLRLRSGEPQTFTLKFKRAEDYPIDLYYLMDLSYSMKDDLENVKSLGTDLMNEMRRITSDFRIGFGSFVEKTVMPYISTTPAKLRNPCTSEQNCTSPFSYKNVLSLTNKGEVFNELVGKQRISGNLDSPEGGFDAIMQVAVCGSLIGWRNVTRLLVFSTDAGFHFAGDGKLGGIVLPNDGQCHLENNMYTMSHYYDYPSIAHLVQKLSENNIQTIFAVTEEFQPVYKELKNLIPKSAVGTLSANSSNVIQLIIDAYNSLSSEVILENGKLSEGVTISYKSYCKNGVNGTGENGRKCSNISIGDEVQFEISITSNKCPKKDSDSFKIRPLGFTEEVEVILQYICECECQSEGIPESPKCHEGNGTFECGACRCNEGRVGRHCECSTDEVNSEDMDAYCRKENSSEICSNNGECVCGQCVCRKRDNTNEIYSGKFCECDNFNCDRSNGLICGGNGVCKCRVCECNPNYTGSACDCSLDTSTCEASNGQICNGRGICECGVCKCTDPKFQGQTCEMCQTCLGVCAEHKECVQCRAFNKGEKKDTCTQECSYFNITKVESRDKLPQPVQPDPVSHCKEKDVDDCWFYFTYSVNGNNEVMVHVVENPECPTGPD

One may read the IC50 as the point on the concentration scale where inhibition reaches its midpoint. Consider `O=C(O)C[C@H](NC(=O)CNC(=O)c1cc(O)cc(NC2=NCC(O)CN2)c1)c1cc(Cl)cc(C2(CF)CCOCC2)c1` (stereo partly drawn) [Example 20, (3S)-3-(3-chloro-5-(4-(fluoromethyl)tetrahydro-2H-pyran-4-yl)phenyl)-3-(2-(3-hydroxy-5-((5-hydroxy-1,4,5,6-tetrahydropyrimidin-2-yl)amino)benzamido)acetamido)propanoic acid], for which the IC50 in assay [1] was found to be 2.4 nM; in assay [2], 0.5 nM.
